From ChEMBL document CHEMBL3507680, “University of Dundee, Gates Library screen for HepG2 cell viability”

Experiment: Human HepG2 cell viability assay in 384 well format
Type: toxicity, cell-based
Set-up: dose 125 nL, time 70.5 hour; cytotoxicity at 70.5 h: concentration not given beside the values
Details: HepG2 cells, read-out: Inhibition

CN(C)c1cc(CNC(=O)c2cccc(F)c2)ccn1
cytotoxicity at 70.5 h: 12.7%

O=C(NCCN1CCCCCC1=O)c1ccc(=O)[nH]n1
cytotoxicity at 70.5 h: 2.56%

COc1ccccc1C(O)CNC(=O)NCc1cc[nH]n1 (stereo not drawn)
cytotoxicity at 70.5 h: -4.26%

CN(C)c1cc(CNC(=O)c2ccc(F)cc2)ccn1
cytotoxicity at 70.5 h: 2.85%

CC(Cn1ccnc1)NC(=O)NCc1ccc2c(c1)OCCO2 (stereo not drawn)
cytotoxicity at 70.5 h: 2.17%

O=C1CCc2cc(-c3csc(CCN4CCOC4=O)n3)ccc2N1
cytotoxicity at 70.5 h: 2.18%

O=C1CCc2cc(-c3csc(CCN4CCOC4=O)n3)c(F)cc2N1
cytotoxicity at 70.5 h: 24.3%

CC(c1cc(F)ccc1F)N(C)C(=O)NCc1ccnc(N(C)C)c1 (stereo not drawn)
cytotoxicity at 70.5 h: 2.05%

CC(C)c1nc2c(n1C)CCN(CC(=O)Nc1nncs1)C2
cytotoxicity at 70.5 h: 6.98%

CN(C)c1ccc(C(=O)N2CCN(CC(O)C(C)(C)C)CC2)nn1 (stereo not drawn)
cytotoxicity at 70.5 h: 0.302%

CCC(O)CN1CCN(C(=O)c2ccc(N(C)C)nn2)CC1 (stereo not drawn)
cytotoxicity at 70.5 h: -2.61%

Cc1cc(CN2CCOC(CNc3cccnn3)C2)no1 (stereo not drawn)
cytotoxicity at 70.5 h: 2.59%

OCC1CCCN1c1cc(NCc2cccnc2)ncn1 (stereo not drawn)
cytotoxicity at 70.5 h: -1.41%

c1cnnc(NCC2CN(Cc3ccon3)CCO2)c1 (stereo not drawn)
cytotoxicity at 70.5 h: 26.6%

Cn1c(C2CC2)nc2c1CCN(CC(=O)Nc1nccs1)C2
cytotoxicity at 70.5 h: -6.18%

Cc1ncc(CN2CCOC(CNc3cccnn3)C2)s1 (stereo not drawn)
cytotoxicity at 70.5 h: 2.68%

Cc1nnc2n1CCN(C(=O)c1ccnc(N(C)C)c1)C2
cytotoxicity at 70.5 h: 6.98%

CN(Cc1noc(C2CC2)n1)C1CCN(CCS(C)(=O)=O)C1 (stereo not drawn)
cytotoxicity at 70.5 h: -3.36%

CCn1ccnc1CN1CCCC1c1noc(C2CC2)n1 (stereo not drawn)
cytotoxicity at 70.5 h: -2.39%

Cc1ncsc1CNC(=O)N(CCCO)C1CCc2ccccc21 (stereo not drawn)
cytotoxicity at 70.5 h: -7.98%

Cc1nc(C2CCCN2Cc2ccon2)no1 (stereo not drawn)
cytotoxicity at 70.5 h: -5.54%

Cn1ccnc1CNCC1CCCN1c1cccnn1 (stereo not drawn)
cytotoxicity at 70.5 h: -4.3%

FC(F)(F)Cn1ccnc1CNCC1CCCN1c1cccnn1 (stereo not drawn)
cytotoxicity at 70.5 h: -13.2%

Cc1noc(C)c1CN(C)CC(=O)N1CCc2sccc2C1
cytotoxicity at 70.5 h: -1.77%

CC(C)c1nc(C2CCCN2Cc2nccn2CC(F)(F)F)no1 (stereo not drawn)
cytotoxicity at 70.5 h: -8.8%

CCOc1ncccc1C(=O)N1CCC(Nc2ccc(C)nn2)CC1
cytotoxicity at 70.5 h: -2.98%

NC(=O)NC(=O)CN1CCN(c2nccs2)CC1
cytotoxicity at 70.5 h: -11.6%

NC(=O)NC(=O)CCN1CCN(c2nccs2)CC1
cytotoxicity at 70.5 h: 19.6%

CNC(=O)NC(=O)CCN1CCN(c2nccs2)CC1
cytotoxicity at 70.5 h: -0.375%

COc1cc(C)c(C(C)NC(=O)NCCCn2cncn2)cc1OC (stereo not drawn)
cytotoxicity at 70.5 h: -5.14%

Cc1nc(CN2CCOC(Cn3cccn3)C2)no1 (stereo not drawn)
cytotoxicity at 70.5 h: -3.79%

CC(C)c1nnc2n1CCN(C(=O)c1ccnc(-n3ccnc3)c1)C2
cytotoxicity at 70.5 h: 19.7%

CC(C)c1nnc2n1CCN(C(=O)c1ccc3c(c1)CCC3)C2
cytotoxicity at 70.5 h: 0.826%

CS(=O)(=O)c1cccc(C(N)c2ccc(F)cc2)c1 (stereo not drawn)
cytotoxicity at 70.5 h: -3.93%

CS(=O)(=O)c1cccc(C(N)c2ccc(Cl)cc2)c1 (stereo not drawn)
cytotoxicity at 70.5 h: -4.71%

COc1ncccc1C(=O)N1CCC(Nc2ccc(C)nn2)CC1
cytotoxicity at 70.5 h: -4.22%

Cc1nc(CN(C)C2CCN(CCc3cnn(C)c3)C2)no1 (stereo not drawn)
cytotoxicity at 70.5 h: 18.2%

Cc1cnc(CN2CCCC(c3cc(C)[nH]n3)C2)cn1 (stereo not drawn)
cytotoxicity at 70.5 h: 15.7%

CC(=O)N(Cc1ncc(C)o1)C1CCN(CCc2cnn(C)c2)C1 (stereo not drawn)
cytotoxicity at 70.5 h: -11.2%

CC(C)c1cnc(CN(C)C2CCN(CCc3cnn(C)c3)C2)o1 (stereo not drawn)
cytotoxicity at 70.5 h: -5.18%

Cc1nc(CN2CCCN(Cc3nccn3C(C)C)CC2)no1
cytotoxicity at 70.5 h: -15.2%

Cc1nc(C)n(CC2CCCN2Cc2cn3ccccc3n2)n1 (stereo not drawn)
cytotoxicity at 70.5 h: -14.7%

Cc1cccc2nc(CN3CCCC3Cn3cncn3)cn12 (stereo not drawn)
cytotoxicity at 70.5 h: -17%

O=C(Cc1ccccc1)NCCNC(=O)c1scnc1Cl
cytotoxicity at 70.5 h: -9.54%

O=C(COc1ccccc1)NCCNC(=O)c1scnc1Cl
cytotoxicity at 70.5 h: -11.8%

Cc1csc(N2CCCN(C(=O)c3ccoc3C)CC2)n1
cytotoxicity at 70.5 h: -4.74%

Cc1cccc2nc(CN3CCCC3Cn3cccn3)cn12 (stereo not drawn)
cytotoxicity at 70.5 h: -10.8%

CCc1ncc(C(=O)N2CCC(Nc3ccc(C)nn3)CC2)s1
cytotoxicity at 70.5 h: -8.02%

CCc1ncc2c(n1)CN(CC(=O)Nc1cccnc1)CC2
cytotoxicity at 70.5 h: 10.9%

COc1cc(S(=O)(=O)N2CCc3ccc(Cl)cc32)cc(C(=O)O)c1OC
cytotoxicity at 70.5 h: -8.43%

CCc1ncc2c(n1)CN(C(C)C(=O)Nc1ccc(Cl)cn1)CC2 (stereo not drawn)
cytotoxicity at 70.5 h: 20.7%

CC(C)c1ncc2c(n1)CN(CC(=O)Nc1ccc(Cl)cn1)CC2
cytotoxicity at 70.5 h: -10.8%

Cc1ccc(-c2nnc(CN3CCn4c(nnc4C4CC4)C3)o2)cc1
cytotoxicity at 70.5 h: -8.76%

OC(COCc1ccco1)CN1CCc2c(ncn2C2CC2)C1 (stereo not drawn)
cytotoxicity at 70.5 h: 1.85%

Cc1cc(CNC(=O)CN2CCCC(Cn3cncn3)C2)ccc1F (stereo not drawn)
cytotoxicity at 70.5 h: 3.75%

CCc1noc(C(C)N2CCC(N3CCCCC3)CC2)n1 (stereo not drawn)
cytotoxicity at 70.5 h: -6.88%

COc1cccc(-n2nnc(C(=O)N3CCNC(=O)C3)c2C)c1
cytotoxicity at 70.5 h: 28%

CN(C)c1cc(C(=O)N2CCN(S(C)(=O)=O)CC2)ccn1
cytotoxicity at 70.5 h: -1%

CCC1c2ccsc2CCN1C(=O)NCc1cc[nH]n1 (stereo not drawn)
cytotoxicity at 70.5 h: -1.24%

O=C(NCC1CCOC1)c1ccc(OCC(F)(F)F)nc1 (stereo not drawn)
cytotoxicity at 70.5 h: -5.4%

CCN(CC1CCOC1)C(=O)Nc1ccc(N2CCCC2)nc1 (stereo not drawn)
cytotoxicity at 70.5 h: -0.947%

CC(Nc1cccc(CN2CCOC2=O)c1)C(=O)Nc1ccccc1F (stereo not drawn)
cytotoxicity at 70.5 h: -7.83%

CC(C)N(Cc1cccc(F)c1)Cc1nc2c(cnn2C)c(=O)[nH]1
cytotoxicity at 70.5 h: 0.718%

CC(C)CCN(C)C(=O)c1nc(S(C)(=O)=O)n2ccccc12
cytotoxicity at 70.5 h: 4.51%

CNC(=O)C1CCC(NC(=O)N(C)Cc2c(C)noc2C)CC1 (stereo not drawn)
cytotoxicity at 70.5 h: 31.6%

Cc1noc(C)c1CN(C)C(=O)NC1CCN(C2CC2)CC1
cytotoxicity at 70.5 h: -2.65%

Cc1ccc(Cl)cc1N1CCC(CNC(=O)CC(F)(F)F)C1 (stereo not drawn)
cytotoxicity at 70.5 h: 1.39%

Cn1cc(C(=O)NC2CCN(Cc3ccn(C)c(=O)c3)CC2)cn1
cytotoxicity at 70.5 h: -14%

CC(C)(O)CN1CCN(C(=O)c2cc(Cl)cc3cccnc23)CC1
cytotoxicity at 70.5 h: -11.7%

Cn1cnc2c1CCN(Cc1ccc(C(=O)N3CCCC3)cc1)C2
cytotoxicity at 70.5 h: -3.6%

Cc1cc(C)n(CC2CCCN2CCCS(N)(=O)=O)n1 (stereo not drawn)
cytotoxicity at 70.5 h: -8.83%

Cn1cc(CN2CCCN(C(=O)c3cn4ccccc4n3)CC2)cn1
cytotoxicity at 70.5 h: -0.261%

CS(=O)(=O)NCC1CCCN(C(=O)COCc2ccccc2)C1 (stereo not drawn)
cytotoxicity at 70.5 h: -12.3%

O=C(NCc1cc[nH]n1)NCC(c1ccc(F)cc1)N1CCOCC1 (stereo not drawn)
cytotoxicity at 70.5 h: -12.9%

CN1CCN(c2cc(CNC(=O)c3ccc(=O)[nH]n3)ccn2)CC1
cytotoxicity at 70.5 h: -21.2%

Cc1cc(C(=O)NCc2ccnc(N3CCN(C)CC3)c2)c(C)s1
cytotoxicity at 70.5 h: -18%

CC(O)CN1CCC(CNCc2ccccc2Br)CC1 (stereo not drawn)
cytotoxicity at 70.5 h: -1.26%

CC(C)(C)c1n[nH]c(C2CN(C(=O)CCC3CC3)CCO2)n1 (stereo not drawn)
cytotoxicity at 70.5 h: -9.78%

CCn1ccnc1CN1CCN(CC(O)Cn2cccn2)CC1 (stereo not drawn)
cytotoxicity at 70.5 h: -10.4%

CC(O)CN1CCC(CNCc2ccccc2OC(F)(F)F)CC1 (stereo not drawn)
cytotoxicity at 70.5 h: 2.51%

CNc1cc(N2CCCC2CNCc2cnc(C)cn2)ncn1 (stereo not drawn)
cytotoxicity at 70.5 h: -8.09%

CCn1ccnc1CNCC1CCN(CC(O)c2ccccc2)CC1 (stereo not drawn)
cytotoxicity at 70.5 h: -11%

c1cnnc(N2CCCC2CNCc2ccsc2)c1 (stereo not drawn)
cytotoxicity at 70.5 h: -10.1%

c1cnnc(N2CCCC2CNCc2nc(-c3ccsc3)no2)c1 (stereo not drawn)
cytotoxicity at 70.5 h: -20.3%

COCCN1CC(C(=O)NCc2ccnc(-n3cccn3)c2)CC1=O (stereo not drawn)
cytotoxicity at 70.5 h: -6.88%

Cc1cc(C)n(CC2CCCN2CCS(=O)(=O)c2ccccc2)n1 (stereo not drawn)
cytotoxicity at 70.5 h: -24.2%

CCc1nc(C2CCCN2C(=O)c2ccoc2C)no1 (stereo not drawn)
cytotoxicity at 70.5 h: -9.91%

CC(C)=CCN1CCOC(Cn2nc(C)cc2C)C1 (stereo not drawn)
cytotoxicity at 70.5 h: 15.4%

CC(C)Cc1noc(CN2CCN(CCOc3ccc(Cl)cc3)CC2)n1
cytotoxicity at 70.5 h: -10.1%

CC(Cn1ccnc1)NC(=O)NCCc1ccccn1 (stereo not drawn)
cytotoxicity at 70.5 h: -0.19%

Fc1ccc(OCc2noc(CN3CCc4cncnc4C3)n2)cc1
cytotoxicity at 70.5 h: -4.28%

Cc1nc(C)n(CC2CCCN(CC(=O)Nc3c(C)n[nH]c3C)C2)n1 (stereo not drawn)
cytotoxicity at 70.5 h: -7.16%

Cc1noc2ncc(C(=O)NCC3CCOC3)cc12 (stereo not drawn)
cytotoxicity at 70.5 h: 22%

Cn1nccc1CNC(=O)Nc1cc(C(F)(F)F)c[nH]c1=O
cytotoxicity at 70.5 h: -7.39%

COc1cccc(OCCNCc2c(C)nn(C)c2N(C)C)c1
cytotoxicity at 70.5 h: -4.8%

Cc1ccccc1-c1cc(C(=O)N2CCn3c(C)nnc3C2)[nH]n1
cytotoxicity at 70.5 h: 0.102%

CCOCC(O)CN1CCN(C(=O)c2ccccc2Cl)CC1 (stereo not drawn)
cytotoxicity at 70.5 h: -2.72%

Cc1ccc(NC2CCN(C(=O)c3ccc(Cl)o3)CC2)nn1
cytotoxicity at 70.5 h: 34.4%

Cc1n[nH]c(C)c1NC(=O)CN1CCCC(CNC(=O)C(C)(C)C)C1 (stereo not drawn)
cytotoxicity at 70.5 h: 2.09%

CCc1noc(C(C)N2CCN(Cc3nc(C)c(C)o3)CC2)n1 (stereo not drawn)
cytotoxicity at 70.5 h: 23.9%

Cn1cc(CN2CCCN(C(=O)c3cc(Cl)cn3C)CC2)cn1
cytotoxicity at 70.5 h: 38.5%

CN(C(=O)NCCCN1CCCC1)C1CCN(c2ccccc2)C1=O (stereo not drawn)
cytotoxicity at 70.5 h: 4.81%

O=C(Nc1cn[nH]c1)c1ccc(O)nc1
cytotoxicity at 70.5 h: 1.6%

Cc1noc(C)c1C(=O)NCc1ccnc(OCC(F)(F)F)c1
cytotoxicity at 70.5 h: -0.701%

Cc1cc(CN(C)C(=O)NC2CCCN(c3ncccn3)C2)no1 (stereo not drawn)
cytotoxicity at 70.5 h: -3.61%

CN(CC1COc2ccccc2O1)C(=O)NCCCn1cncn1 (stereo not drawn)
cytotoxicity at 70.5 h: -4.69%

O=C(Nc1nccs1)N(CCO)Cc1ccsc1
cytotoxicity at 70.5 h: 1.52%

Cc1cc(C)n(-c2ccc(CNCc3ccc(OC(C)C)cc3)cn2)n1
cytotoxicity at 70.5 h: -0.102%

Cc1ccc(C)c(OC2CCN(C(=O)c3ccc(C)[nH]c3=O)CC2)c1
cytotoxicity at 70.5 h: -11%

O=C(Nc1ccccn1)N(CCO)Cc1ccsc1
cytotoxicity at 70.5 h: 4.99%

CCN(CC)C(=O)Cn1ccc2cc(NC(=O)C3CC3)ccc21
cytotoxicity at 70.5 h: 7.86%

Cc1nc(C)c(CC(=O)Nc2ncc(C)s2)c(=O)[nH]1
cytotoxicity at 70.5 h: -1.19%

Cc1cccc(OCCC(=O)NCC(C)(C)C(N)=O)c1
cytotoxicity at 70.5 h: 5.99%

O=C(CCc1cnn(-c2ccccc2)c1)N1CCCC(n2cccn2)C1 (stereo not drawn)
cytotoxicity at 70.5 h: 6.67%

CC(C)(CNC(=O)NCCOc1cccc(F)c1)C(N)=O
cytotoxicity at 70.5 h: -1.08%

Cc1cc(CC(=O)NCc2ccnc(OCC(F)(F)F)c2)no1
cytotoxicity at 70.5 h: 34%

Cc1ncc(CNC(=O)N(C)C2CCN(c3ccccc3)C2=O)s1 (stereo not drawn)
cytotoxicity at 70.5 h: 3.88%

CN1CCCC1CNC(=O)CCCOc1ccc(F)cc1 (stereo not drawn)
cytotoxicity at 70.5 h: 0.0711%
